Experimental data reported in BindingDB's records for doi:10.1021/jm060199b (Abbott Laboratories, 2006).

Molecular target: Mitogen-activated protein kinase 8 (Homo sapiens, UniProt P45983)
Assay: ATF-2 Phosphorylation Assay

Sequence of Mitogen-activated protein kinase 8 (P45983 whole entry): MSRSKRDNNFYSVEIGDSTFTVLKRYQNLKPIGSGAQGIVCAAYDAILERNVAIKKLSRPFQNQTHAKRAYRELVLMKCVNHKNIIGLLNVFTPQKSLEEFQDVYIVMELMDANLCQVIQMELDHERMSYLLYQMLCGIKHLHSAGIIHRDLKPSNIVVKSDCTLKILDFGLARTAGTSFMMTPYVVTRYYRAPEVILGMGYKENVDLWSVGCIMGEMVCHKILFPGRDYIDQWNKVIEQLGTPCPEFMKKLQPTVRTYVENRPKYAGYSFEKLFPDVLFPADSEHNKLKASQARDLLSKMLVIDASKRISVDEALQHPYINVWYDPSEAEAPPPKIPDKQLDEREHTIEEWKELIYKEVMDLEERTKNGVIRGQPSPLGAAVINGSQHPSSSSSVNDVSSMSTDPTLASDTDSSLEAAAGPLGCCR

IC50: > 10 µM
Structure (SMILES): CCOc1cccc(NC(C)=O)n1 [N-(6-ethoxypyridin-2-yl)acetamide]
